Measurements taken from patent US10669272B2, “Substituted naphthyridinone compounds useful as T cell activators” (BRISTOL-MYERS SQUIBB COMPANY, priority 2018, dated 2020).
Where two headings read alike, the source gives them in different places.

Experiments:
[1] = biological target: T1, human DGKα (Homo sapiens, UniProt P23743); assay: DGKα LIPGLO assay (extruded liposome substrate), in vitro DGK inhibition; assay type: biochemical; settings: read-out: DGKa LIPGLO IC50
T1 construct: TVMV protease cleavage site (C); Hexa-His (C); made in house; host or cells: Sf9 insect cells (baculovirus, Bac-to-Bac)
T1 sequence (P23743 with tags, fused parts or gaps): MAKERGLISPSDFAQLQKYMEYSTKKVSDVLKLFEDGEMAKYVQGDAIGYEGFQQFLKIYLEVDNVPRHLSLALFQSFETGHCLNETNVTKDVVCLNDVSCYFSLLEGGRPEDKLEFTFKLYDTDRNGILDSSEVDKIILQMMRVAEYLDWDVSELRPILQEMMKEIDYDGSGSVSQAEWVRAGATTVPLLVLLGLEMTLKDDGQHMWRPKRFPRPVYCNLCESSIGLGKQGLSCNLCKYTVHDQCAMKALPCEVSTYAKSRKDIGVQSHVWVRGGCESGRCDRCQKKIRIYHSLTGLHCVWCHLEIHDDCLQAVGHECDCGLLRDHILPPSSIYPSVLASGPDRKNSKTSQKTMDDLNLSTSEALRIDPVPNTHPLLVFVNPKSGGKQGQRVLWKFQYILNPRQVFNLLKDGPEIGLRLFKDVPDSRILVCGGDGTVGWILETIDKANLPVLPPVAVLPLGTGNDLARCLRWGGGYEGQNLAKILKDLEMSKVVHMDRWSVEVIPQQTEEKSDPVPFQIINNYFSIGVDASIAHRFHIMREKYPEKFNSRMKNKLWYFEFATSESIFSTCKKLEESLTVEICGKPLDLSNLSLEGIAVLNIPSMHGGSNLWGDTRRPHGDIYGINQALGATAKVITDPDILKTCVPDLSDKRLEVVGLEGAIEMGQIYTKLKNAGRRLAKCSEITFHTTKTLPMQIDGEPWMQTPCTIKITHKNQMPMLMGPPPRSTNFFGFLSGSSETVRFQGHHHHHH

[2] = biological target: T2, human DGKζ (Homo sapiens, UniProt Q13574); assay: DGKζ LIPGLO assay (extruded liposome substrate), in vitro DGK inhibition; assay type: biochemical; settings: read-out: DGKz LIPGLO IC50
T2 construct: TVMV protease cleavage site (C); Hexa-His (C); made in house; host or cells: Sf9 insect cells (baculovirus, Bac-to-Bac)
T2 sequence (Q13574 with tags, fused parts or gaps isoform Q13574-4): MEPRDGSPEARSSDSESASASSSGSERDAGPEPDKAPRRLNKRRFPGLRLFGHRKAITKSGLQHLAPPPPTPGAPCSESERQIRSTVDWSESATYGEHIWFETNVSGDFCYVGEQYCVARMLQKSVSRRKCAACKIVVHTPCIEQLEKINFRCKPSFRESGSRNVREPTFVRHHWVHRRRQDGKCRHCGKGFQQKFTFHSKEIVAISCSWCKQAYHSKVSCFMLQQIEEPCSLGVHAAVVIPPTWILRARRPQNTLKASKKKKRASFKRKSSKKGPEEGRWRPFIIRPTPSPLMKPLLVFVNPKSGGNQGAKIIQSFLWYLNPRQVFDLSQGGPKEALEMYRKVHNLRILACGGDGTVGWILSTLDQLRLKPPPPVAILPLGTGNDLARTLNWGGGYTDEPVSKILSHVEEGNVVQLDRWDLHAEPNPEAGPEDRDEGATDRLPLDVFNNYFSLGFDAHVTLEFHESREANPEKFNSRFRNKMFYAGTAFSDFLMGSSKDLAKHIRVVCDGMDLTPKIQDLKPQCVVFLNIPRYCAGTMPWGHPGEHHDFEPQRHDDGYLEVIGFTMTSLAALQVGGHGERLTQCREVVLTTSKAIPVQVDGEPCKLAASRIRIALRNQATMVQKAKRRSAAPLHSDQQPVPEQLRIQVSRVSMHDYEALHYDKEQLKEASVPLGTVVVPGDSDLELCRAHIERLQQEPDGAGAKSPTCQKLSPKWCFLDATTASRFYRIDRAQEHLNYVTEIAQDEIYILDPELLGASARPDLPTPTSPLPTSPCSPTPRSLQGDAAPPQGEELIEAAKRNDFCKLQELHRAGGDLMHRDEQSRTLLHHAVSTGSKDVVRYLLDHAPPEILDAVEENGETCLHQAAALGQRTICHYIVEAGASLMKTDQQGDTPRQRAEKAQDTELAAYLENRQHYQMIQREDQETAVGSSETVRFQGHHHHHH

[3] = system: naïve human CD8 T cells; assay: Human CD8 T cells IFN-γ assay; assay type: cell-based; settings: read-out: HuCD8 INFG Normalized EC50;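 further: Naïve human CD8 T cells stimulated with plate-bound anti-CD3 and soluble anti-CD28, IFN-γ in supernatant quantified by AlphaLISA and converted to pg/mL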
[4] = system: Human venous whole blood; assay: Human whole blood IFN-γ assay; assay type: cell-based; settings: human whole blood, read-out: INFg Whole Blood Normalized Agonist EC50;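 further: blood from healthy donors exposed to compound for 1 h before stimulation with anti-CD3 and anti-CD28 at 1 µg/mL each, IFN-γ quantified in supernatant by AlphaLISA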
[5] = Homo sapiens, T-cell, 20 h, normalized to 3 μM reference compound with anti-CD3 plus anti-CD28 as 100% activation
[6] = Homo sapiens, 24 h, normalized to 3 μM reference compound with anti-CD3 plus anti-CD28 as 100% activation
[7] = normalized to 3 μM reference compound with anti-CD3 plus anti-CD28 as 100% activation
[8] = Homo sapiens, T-cell, 20 h, naïve human CD8 T cells, anti-CD3 plus anti-CD28, 3 μM reference compound = 100% activation
[9] = Homo sapiens, 24 h, anti-CD3 plus anti-CD28, 24 hours, 3 μM reference compound = 100% activation
[10] = anti-CD3 plus anti-CD28, 24 hours, 3 μM reference compound = 100% activation
[11] = naïve human CD8 T cells, anti-CD3 plus anti-CD28, 3 μM reference compound = 100% activation

SMILES | IC50 ([1]; liposome (LIPGLO) assay) | IC50 ([2]; liposome (LIPGLO) assay) | EC50 [3, 5] | EC50 [4, 6] | further results
C[C@@H]1CN(c2c(F)c(=O)n(C)c3ccc(C#N)nc23)[C@@H](C)CN1C(c1ccc(F)cc1)c1ccc(C#N)cc1 (stereo partly drawn) [Example 327, 8-((2S,5R)-4-((4-cyanophenyl)(4-fluorophenyl)methyl)-2,5-dimethylpiperazin-1-yl)-7-fluoro-5-methyl-6-oxo-5,6-dihydro-1,5-naphthyridine-2-carbonitrile] | 3200 nM | 4900 nM | – | 700 nM | EC50 [3, 7]: 1200 nM
C[C@@H]1CN(c2cc(=O)n(C)c3ccc(C#N)nc23)[C@@H](C)CN1C(c1ccc(Cl)cc1)c1cccc2c1OCCO2 (stereo partly drawn) [Example 447, 8-((2S,5R)-4-((4-chlorophenyl)(2,3-dihydrobenzo[b][1,4]dioxin-5-yl)methyl)-2,5-dimethylpiperazin-1-yl)-5-methyl-6-oxo-5,6-dihydro-1,5-naphthyridine-2-carbonitrile] | 7700 nM | 290 nM | 50 nM | 600 nM | –
Cc1ccc(C(c2cccc(C)n2)N2C[C@H](C)N(c3cc(=O)n(C)c4ccc(C#N)nc34)C[C@H]2C)cc1 (stereo partly drawn) [Example 450, 8-((2S,5R)-2,5-dimethyl-4-((6-methylpyridin-2-yl)(p-tolyl)methyl)piperazin-1-yl)-5-methyl-6-oxo-5,6-dihydro-1,5-naphthyridine-2-carbonitrile] | 2600 nM | 290 nM | 70 nM | 280 nM | –
C[C@@H]1CN(c2cc(=O)n(C)c3ccc(C#N)nc23)[C@@H](C)CN1C(c1ccc(F)cc1)c1cccc2c1OC(F)(F)O2 (stereo partly shown) [Example 668] | 120000 nM | 3100 nM | – | 600 nM | EC50 [3, 7]: 35 nM
C[C@@H]1CN(c2cc(=O)n(C)c3ccc(C#N)nc23)[C@@H](C)CN1C(c1ccc(F)cc1)c1cccc2c1OC(F)(F)O2 (stereo partly shown) [Example 669] | 140000 nM | 4800 nM | – | – | EC50 [3, 7]: 96 nM; EC50 [4, 7]: 860 nM
C[C@@H]1CN(c2cc(=O)n(C)c3ccc(C#N)nc23)[C@@H](C)CN1C(c1ccc(F)cc1)c1nc(C(C)(C)C)no1 (stereo partly shown) [Example 737] | – | – | – | – | IC50 ([1]; DGKα liposome (LIPGLO) assay): 1100 nM; IC50 ([2]; DGKζ liposome (LIPGLO) assay): 130 nM; EC50 [3, 8]: 0.31 nM; EC50 [4, 9]: 43 nM
Cc1ccc(C(c2ccc(C)cc2)N2C[C@H](C)N(c3c(C#N)c(=O)n(C)c4ccc(C#N)nc34)C[C@H]2C)cc1 [Example 806] | – | – | – | – | IC50 ([1]; DGKα liposome (LIPGLO) assay): 6300 nM; IC50 ([2]; DGKζ liposome (LIPGLO) assay): 390 nM; EC50 [3, 8]: 18 nM; EC50 [4, 9]: 690 nM
Cc1ccc(C(c2ccc(F)cn2)N2C[C@H](C)N(c3c(C#N)c(=O)n(C)c4ccc(C#N)nc34)C[C@H]2C)cc1 (stereo partly shown) [Example 833] | – | – | – | – | IC50 ([1]; DGKα liposome (LIPGLO) assay): 2000 nM; IC50 ([2]; DGKζ liposome (LIPGLO) assay): 2800 nM; EC50 [3, 8]: 320 nM; EC50 [4, 9]: 680 nM
Cc1ccc(C(c2ccc(F)cc2)N2CCN(c3c(C#N)c(=O)n(C)c4ccc(C#N)nc34)C[C@H]2C)cc1 (stereo partly shown) [Example 889] | – | – | – | – | IC50 ([1]; DGKα liposome (LIPGLO) assay): 1300 nM; IC50 ([2]; DGKζ liposome (LIPGLO) assay): 370 nM; EC50 [3, 8]: 220 nM; EC50 [4, 10]: 670 nM
C[C@@H]1CN(c2c(C#N)c(=O)n(C)c3ccc(C#N)nc23)CCN1C(c1ccc(F)cc1)c1ccc(F)cn1 (stereo partly shown) [Example 903] | – | – | – | – | IC50 ([1]; DGKα liposome (LIPGLO) assay): 630 nM; IC50 ([2]; DGKζ liposome (LIPGLO) assay): 3500 nM; EC50 [3, 8]: 140 nM; EC50 [4, 10]: 730 nM
C[C@@H]1CN(c2c(C#N)c(=O)n(C)c3ccc(C#N)nc23)CCN1C(c1cccc(Cl)c1)c1ccc(F)cn1 (stereo partly shown) [Example 927] | – | – | – | – | IC50 ([1]; DGKα liposome (LIPGLO) assay): 2600 nM; IC50 ([2]; DGKζ liposome (LIPGLO) assay): 1600 nM; EC50 [3, 8]: 300 nM; EC50 [4, 10]: 800 nM
C[C@@H]1CN(c2c(C#N)c(=O)n(C)c3ccc(C#N)nc23)CCN1C(c1ccc(F)cc1)c1ccc(Cl)cn1 (stereo partly shown) [Example 932] | – | – | – | – | IC50 ([1]; DGKα liposome (LIPGLO) assay): 150 nM; IC50 ([2]; DGKζ liposome (LIPGLO) assay): 1200 nM; EC50 [3, 11]: 52 nM; EC50 [4, 9]: 310 nM
C[C@@H]1CN(c2c(C#N)c(=O)n(C)c3ccc(C#N)nc23)CCN1C(c1ccc(F)cc1)c1ccc(Cl)cn1 (stereo partly shown) [Example 933] | – | – | – | – | IC50 ([1]; DGKα liposome (LIPGLO) assay): 200 nM; IC50 ([2]; DGKζ liposome (LIPGLO) assay): 1000 nM; EC50 [3, 11]: 350 nM; EC50 [4, 10]: 550 nM
CC[C@@H]1CN(c2cc(=O)n(C)c3ccc(C#N)nc23)[C@@H](C)CN1C(c1ccc(Cl)cc1)c1ccc(Cl)cc1 [Example 1099] | 1700 nM | 1500 nM | 2.5 nM | 220 nM | –
C[C@H]1CN(C(c2ccc(Cl)cc2)c2ccc(Cl)cc2)[C@H](CO)CN1c1cc(=O)n(C)c2ccc(C#N)nc12 [Example 1152] | 7400 nM | 24000 nM | 10000 nM | 780 nM | –
COC[C@@H]1CN(c2cc(=O)n(C)c3ccc(C#N)nc23)[C@@H](C)CN1C(c1ccc(F)cc1)c1ccc(F)cc1 [Example 1155, 8-((2S,5S)-4-(bis(4-fluorophenyl)methyl)-5-(methoxymethyl)-2-methylpiperazin-1-yl)-5-methyl-6-oxo-5,6-dihydro-1,5-naphthyridine-2-carbonitrile] | 1800 nM | 660 nM | 3.5 nM | 860 nM | –
COC[C@@H]1CN(c2cc(=O)n(C)c3ccc(C#N)nc23)[C@@H](C)CN1C(c1ccc(C)cc1)c1ccc(C)cc1 [Example 1156] | 2500 nM | 440 nM | 19 nM | 340 nM | –
CCOC[C@@H]1CN(c2cc(=O)n(C)c3ccc(C#N)nc23)[C@@H](C)CN1C(c1ccc(F)cc1)c1ccc(F)cc1 [Example 1164, 8-((2S,5S)-4-(bis(4-fluorophenyl)methyl)-5-(ethoxymethyl)-2-methylpiperazin-1-yl)-5-methyl-6-oxo-5,6-dihydro-1,5-naphthyridine-2-carbonitrile] | 18000 nM | 670 nM | 17 nM | 340 nM | –
C[C@H]1CN(C(c2ccc(F)cc2)c2ccc(F)cc2)[C@H](CN2CCOCC2)CN1c1cc(=O)n(C)c2ccc(C#N)nc12 [Example 1167, 8-((2S,5R)-4-(bis(4-fluorophenyl)methyl)-2-methyl-5-(morpholinomethyl)piperazin-1-yl)-5-methyl-6-oxo-5,6-dihydro-1,5-naphthyridine-2-carbonitrile] | 50000 nM | 6600 nM | 47 nM | 970 nM | –

Continued by falling IC50 ([1]; liposome (LIPGLO) assay), values first:

IC50 ([1]; liposome (LIPGLO) assay) | IC50 ([2]; liposome (LIPGLO) assay) | SMILES | EC50 [3, 5] | EC50 [4, 6] | further results
1200 nM | 2600 nM | C[C@@H]1CN(c2c(F)c(=O)n(C)c3ccc(C#N)nc23)[C@@H](C)CN1C(c1ccc(F)cc1)c1ccc(C#N)cc1 (stereo partly drawn) [Example 328, 8-((2S,5R)-4-((4-cyanophenyl)(4-fluorophenyl)methyl)-2,5-dimethylpiperazin-1-yl)-7-fluoro-5-methyl-6-oxo-5,6-dihydro-1,5-naphthyridine-2-carbonitrile] | – | – | EC50 [3, 7]: 6000 nM; EC50 [4, 7]: 1000 nM
940 nM | 300 nM | Cc1ccc(C(c2cccc(F)n2)N2C[C@H](C)N(c3cc(=O)n(C)c4ccc(C#N)nc34)C[C@H]2C)cc1 (stereo partly drawn) [Example 476, 8-((2S,5R)-4-((6-fluoropyridin-2-yl)(p-tolyl)methyl)-2,5-dimethylpiperazin-1-yl)-5-methyl-6-oxo-5,6-dihydro-1,5-naphthyridine-2-carbonitrile] | 160 nM | 630 nM | –
890 nM | 1000 nM | C[C@@H]1CN(c2cc(=O)n(C)c3ccc(C#N)nc23)[C@@H](C)CN1C(c1ccc(F)cc1)c1ccc(Cl)cc1 (stereo partly drawn) [Example 300, 8-[(2S,5R)-4-[(4-chlorophenyl)(4-fluorophenyl)methyl]-2,5-dimethylpiperazin-1-yl]-5-methyl-6-oxo-5,6-dihydro-1,5-naphthyridine-2-carbonitrile] | 21 nM | 120 nM | –
410 nM | 2000 nM | [2H]C([2H])(c1c(F)cc(F)cc1F)N1C[C@H](C)N(c2cc(=O)n(C)c3ccc(C#N)nc23)C[C@H]1C [Example 430, 8-((2S,5R)-2,5-dimethyl-4-((2,4,6-trifluorophenyl)methyl-d2)piperazin-1-yl)-5-methyl-6-oxo-5,6-dihydro-1,5-naphthyridine-2-carbonitrile] | 46 nM | 500 nM | –
390 nM | 370 nM | CC[C@@H]1CN(c2cc(=O)n(C)c3ccc(C#N)nc23)[C@@H](C)CN1C(c1ccc(F)cc1)c1ccc(Cl)cc1 (stereo partly shown) [Example 1100] | 4.6 nM | 120 nM | –
260 nM | 240 nM | CC[C@H]1CN(C(c2ccc(F)cc2)c2ccc(Cl)cc2)[C@H](CC)CN1c1cc(=O)n(C)c2ccc(C#N)nc12 (stereo partly shown) [Example 1031] | 1.3 nM | 85 nM | –
250 nM | 900 nM | CC[C@@H]1CN(c2cc(=O)n(C)c3ccc(C#N)nc23)[C@@H](C)CN1C(c1ccc(F)cc1)c1ncccc1F (stereo partly shown) [Example 1104] | – | 300 nM | EC50 [3, 7]: 56 nM
150 nM | 440 nM | CC[C@@H]1CN(c2cc(=O)n(C)c3ccc(C#N)nc23)[C@@H](C)CN1C(c1ccc(F)cc1)c1ncccc1F (stereo partly shown) [Example 1105] | – | – | EC50 [3, 7]: 200 nM; EC50 [4, 7]: 320 nM
110 nM | 75 nM | CC[C@H]1CN(C(c2ccc(Cl)cc2)c2ccc(Cl)cc2)[C@H](C)CN1c1cc(=O)n(C)c2ccc(C#N)nc12 [Example 1120] | 32 nM | 680 nM | –
